From ChEMBL document CHEMBL5512658, “Development of benzimidazole-based compounds as novel capsid assembly modulators for the treatment of HBV infection” (Eur J Med Chem, 2024)
Blank lines part the entries; values can stand above or below the compound they belong to. Activity calls are given as the source filed them. No cut-off for these calls is given here.

Tests used:
Hepatitis B virus [1] = assay: Antiviral activity against HBV infected in human HePAD38 cells assessed as reduction HBV capsid level at 5 uM media replaced for every 2 to 3 days incubated for 7 days by Western blot analysis; type: functional, organism-based; conditions: time 7.0 day
HepG2 = assay: Cytotoxicity against human HepG2 cells measured after 3 days by resazurin staining based analysis; type: functional; conditions: HepG2, 72 h, time 3 day
[2] = system: Hepatitis B virus core protein; assay: Selectivity index, ratio of CC50 for human HepG2 cells to IC50 for Hepatitis B virus core protein expressed in HEK293T cells; type: toxicity, cell-based; conditions: read-out: Ratio CC50/IC50
Hepatitis B virus [3] = assay: Antiviral activity against HBV infected in BALB/c mouse hydrodynamic injection model hydrodynamically injected with replication-competent HBV DNA plasmid assessed as decrease in HBsAG level in mouse serum at 100 mg/kg, po administered twice daily for 7 days by ELISA method; type: functional, organism-based; conditions: time 7.0 day
Hepatitis B virus [4] = assay: Antiviral activity against HBV infected in human HePAD38 cells assessed as decrease in HBV DNA level at 2.5 to 20 uM by q-PCR analysis; type: functional, organism-based; conditions: dose 2.5-20 µM
Hepatitis B virus [5] = assay: Antiviral activity against HBV infected in human HePAD38 cells assessed as reduction in intracellular core HBV DNA level media replaced for every 2 to 3 days incubated for 7 days by Western blot analysis; type: functional, organism-based
Hepatitis B virus [6] = assay: Antiviral activity against HBV infected in BALB/c mouse hydrodynamic injection model hydrodynamically injected with replication-competent HBV DNA plasmid assessed as reduction in HBV DNA copy numbers in plasma at 100 mg/kg, po administered twice daily for 14 days; type: functional, organism-based; conditions: time 14.0 day
Hepatitis B virus [7] = assay: Antiviral activity against HBV infected in human HePAD38 cells assessed as inhibition of HBV capsid assembly by measuring secretion of particles containing HBV DNA at 5 uM incubated for 7 days by Southern blot analysis; type: functional, organism-based; conditions: time 7.0 day
[8] = Toxicity in BALB/c mouse at 100 mg/kg, po administered twice daily for 14 days; type: organism-based; conditions: in vivo, 336 h, time 14 day
Core antigen = Core antigen (Hepatitis B virus, UniProt Q03732); assay: Inhibition of Hepatitis B virus core protein expressed in HBC cells derived from HEK293T cells assessed as reduction in HBcAg level incubated for 6 hrs by Nano-glo luciferase assay; type: cell-based; conditions: read-out: IC50
Hepatitis B virus [9] = assay: Antiviral activity against HBV infected in human HepAD38 cells assessed as inhibition of viral replication by Southern blot analysis; type: functional, organism-based
Hepatitis B virus [10] = assay: Antiviral activity against HBV infected in human HepAD38 cells assessed as inhibition of viral replication incubated for 6 days by qPCR analysis; type: functional, organism-based; conditions: HePAD38, 144 h

Chain of Core antigen (Q03732 whole entry): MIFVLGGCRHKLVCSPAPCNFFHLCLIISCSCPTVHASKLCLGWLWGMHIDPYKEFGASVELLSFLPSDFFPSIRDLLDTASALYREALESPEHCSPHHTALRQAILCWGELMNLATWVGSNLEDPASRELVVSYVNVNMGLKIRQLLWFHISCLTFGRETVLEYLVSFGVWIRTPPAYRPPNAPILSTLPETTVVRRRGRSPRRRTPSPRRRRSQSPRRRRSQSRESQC

Compound: COc1ccc(Sc2nc3ccccc3n2CCO)cc1
Activity (Hepatitis B virus [1]): Active
CC50 (HepG2): 84300 nM
selectivity ratio [2]: 165
Activity (Hepatitis B virus [3]): Active
Activity (Hepatitis B virus [4]): Active
EC50 (Hepatitis B virus [5]): 2240 nM
Activity (Hepatitis B virus [6]): Active
Activity (Hepatitis B virus [7]): Active
Activity [8]: Non-Toxic
IC50 (Core antigen): 510 nM

EC50 (Hepatitis B virus [9]): 62.2 nM
Compound: CCOC(=O)C1=C(CN2CCOCC2)NC(c2nccs2)=N[C@H]1c1ccc(F)cc1Br

EC50 (Hepatitis B virus [10]): 200 nM
Compound: COc1ccccc1/C(Br)=C(/NC(=O)c1ccc([N+](=O)[O-])cc1)C(=O)N1CCCCC1
